We go through 26 compounds from patent publication US20080051387A1, “TETRAHYDROPYRIDO[3,4-D]PYRIMIDINES AND RELATED ANALOGUES” (priority 2006, published 2008).

For test [1], the target named is T1, chimeric human H3 receptor (Homo sapiens, UniProt Q9Y5N1).
T1 construct: rat Galpha-i2 (Gnai2, rat); made in house; host or cells: Sf9 insect cells (baculovirus); P2 membranes
Briefly: Chimeric human H3 receptor GTP binding assay (agonist-stimulated GTP-gamma35S binding, Example 7). Type of test: biochemical. The source says:
This Example illustrates a representative assay for evaluating agonist-stimulated GTP-gamma^35S binding (“GTP binding”) activity. […] This agonist-stimulated GTP binding activity can also be used to detect partial agonism mediated by antagonist compounds. A compound analyzed in this assay is referred to herein as a “test compound.”
Four independent baculoviral stocks (one directing the expression of the chimeric human H3 receptor and three directing the expression of each of the three subunits of a heterotrimeric G-protein) are used to infect a culture of Sƒ9 cells as described above. P2 membranes are prepared as described above, and agonist-stimulated GTP binding on the P2 membranes is assessed using histamine (Sigma Chemical Co., St. Louis, Mo.) as agonist in order to ascertain that the receptor/G-protein-alpha-beta-gamma combination(s) yield a functional response as measured by GTP binding. P2 membranes are resuspended by Dounce homogenization (tight pestle) in GTP binding assay buffer (50 mM Tris pH 7.4, 120 mM NaCl, 5 mM MgCl2, 2 mM EGTA, 1 mg/ml BSA, 0.2 mg/ml bacitracin, 0.02 mg/ml aprotinin, 0.01 mg/ml saponin, 10 μM GDP) and added to assay tubes at a concentration of 35 μg protein/reaction tube. After adding increasing doses of histamine at concentrations ranging from 10-12 M to 10^−5 M, reactions are initiated by the addition of 125 pM GTP-gamma^35S (PERKIN ELMER; Boston, Mass.) with a final assay volume of 0.20 ml. In competition experiments, non-radiolabeled test compounds are added to separate reactions at concentrations ranging from 10^−10 M to 10^−6 M along with 1 μM histamine to yield a final volume of 0.20 ml.
Neutral antagonists are antagonists that are substantially free of inherent agonist activity, and include those test compounds that reduce the histamine-stimulated GTP binding activity towards, but not below, baseline levels. In contrast, in the absence of added histamine, inverse agonists reduce the GTP binding activity of the receptor-containing membranes below baseline.
After a 60-min incubation at room temperature, reactions are terminated by vacuum filtration over WHATMAN GF/C filters (pre-soaked in wash buffer, 0.1% BSA) followed by washing with ice-cold wash buffer (50 mM Tris pH 7.4, 120 mM NaCl). The amount of receptor-bound (and thereby membrane-bound) GTP-gamma^35S is determined by measuring the filter-bound radioactivity, preferably by liquid scintillation spectrometry of the washed filters. Non-specific binding is determined in parallel assays including 10 μM unlabeled GTP-gammaS and typically represents less than 5 percent of total binding. Data is expressed as percent above basal (baseline). The results of GTP binding experiments are analyzed using SIGMAPLOT software (SPSS Inc., Chicago, Ill.). IC50 values are calculated by non-linear regression analysis of dose-response curves using Kaleidograph (Synergy Software, Reading, Pa.).
Alternatively the data is analyzed as follows. First, the average bound radioactivity from negative control wells (no agonist) is subtracted from the bound radioactivity detected for each of the other experimental wells. Second, average bound radioactivity is calculated for the positive control wells (agonist wells). Then, percent inhibition for each compound tested is calculated using the equation: [formula]
Calculated IC50 values are converted to Ki values by the Cheng-Prusoff correction (Cheng and Prusoff (1973) Biochem. Pharmacol. 22(23):3099-3108). Accordingly, the following equation: Ki=IC50/(1+[L]/EC50) is used, where [L] is the histamine concentration in the GTP binding assay, and EC50 is the concentration of histamine producing a 50% response, as determined by a dose-response analysis using concentrations of histamine ranging from 10^−10 M to 10^−6 M. […]
For orientation: GTPγS resists hydrolysis and so accumulates on activated G proteins.

Test [2] addresses T1, chimeric human H3 receptor. Briefly: Chimeric human H3 receptor screening GTP binding assay (inhibition of histamine-stimulated GTP-gamma35S binding, Example 8). As to conditions: 1 h; assay of Example 8; symbol "!" in column headed Ki; read-out: percent inhibition of agonist-induced GTP-gammaS binding to H3. In kind it is biochemical. Summed up: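 Sf9 membranes co-expressing chimeric human H3 receptor and heterotrimeric G-protein (35 μg protein) incubated 60 min at room temperature with 4 μM compound, 1 μM histamine and 125 pM GTP-gamma35S in pH 7.4 buffer with 10 μM GDP. Filter-bound radioactivity, nonspecific (10 μM GTP-gammaS) subtracted, reported as % inhibition of histamine signal.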

[3] abbreviates: assay of Example 7, symbol "*" in column headed Ki, read-out: Ki.
[4] abbreviates: P2 membranes of Sf9 cells, 1 μM histamine as agonist, Ki from IC50 by Cheng-Prusoff, read-out: Ki.
Where [5] appears, read: P2 membranes of Sf9 cells, 1 μM histamine as agonist, read-out: Ki in the assay of Example 7.

Like-named read-outs stand apart in the source and are kept apart here.

T1 sequence (Q9Y5N1 with tags, fused parts or gaps): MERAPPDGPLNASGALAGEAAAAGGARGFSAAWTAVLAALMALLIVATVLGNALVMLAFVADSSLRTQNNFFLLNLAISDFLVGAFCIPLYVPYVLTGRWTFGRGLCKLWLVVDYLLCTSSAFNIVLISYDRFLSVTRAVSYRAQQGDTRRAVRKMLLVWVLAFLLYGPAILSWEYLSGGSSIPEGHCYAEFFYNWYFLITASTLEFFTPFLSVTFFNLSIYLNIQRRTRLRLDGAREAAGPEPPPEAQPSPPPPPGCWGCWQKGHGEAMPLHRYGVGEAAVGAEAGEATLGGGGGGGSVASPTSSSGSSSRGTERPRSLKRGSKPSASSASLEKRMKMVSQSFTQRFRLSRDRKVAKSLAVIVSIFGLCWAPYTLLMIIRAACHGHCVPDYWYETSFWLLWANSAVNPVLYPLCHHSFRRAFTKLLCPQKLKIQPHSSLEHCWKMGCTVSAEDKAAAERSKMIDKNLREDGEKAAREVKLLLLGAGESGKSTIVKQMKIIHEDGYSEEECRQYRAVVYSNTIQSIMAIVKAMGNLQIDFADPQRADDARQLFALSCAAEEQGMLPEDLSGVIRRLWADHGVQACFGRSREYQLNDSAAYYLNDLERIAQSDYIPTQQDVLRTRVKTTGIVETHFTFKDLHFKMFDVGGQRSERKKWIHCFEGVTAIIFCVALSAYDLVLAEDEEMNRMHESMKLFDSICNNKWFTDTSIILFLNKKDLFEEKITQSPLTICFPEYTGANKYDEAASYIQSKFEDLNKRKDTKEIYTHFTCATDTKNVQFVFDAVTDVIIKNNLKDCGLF

As a reminder, the Ki is the equilibrium dissociation constant of an inhibitor or competing ligand from its target. Take `CNC(=O)c1ccc(N2CCN(c3ncc4c(n3)CCN(C3CCC3)CC4)CC2)nc1` [Compound 604, 6-[4-(7-cyclobutyl-6,7,8,9-tetrahydro-5H-pyrimido[4,5-d]azepin-2-yl]piperazin-1-yl]-N-methylnicotinamide]: the Ki in test [1] (setting [3]) is less than 1000 nM.
On to `c1nc(N2CCN(C3CCC3)CC2)nc2c1CN(C1CCC1)CC2` [Compound 609, 6-cyclobutyl-2-(4-cyclobutylpiperazin-1-yl)-5,6,7,8-tetrahydropyrido[4,3-d]pyrimidine], for which, in test [1] (setting [4]), the Ki is less than 1000 nM.
Regarding `CNC(=O)c1ccc(N2CCN(c3ncc4c(n3)CCN(CC3CCOCC3)CC4)CC2)nc1` [Compound 603, N-methyl-6-{4-[7-(tetrahydro-2H-pyran-4-ylmethyl)-6,7,8,9-tetrahydro-5H-pyrimido[4,5-d]azepin-2-yl]piperazin-1-yl}nicotinamide], the Ki in test [1] (setting [3]) is less than 1000 nM.
Take `O=C(c1ccccc1)N1CCc2cnc(N3CCN(C4CCC4)CC3)nc2CC1` [Compound 183, 7-benzoyl-2-(4-cyclobutylpiperazin-1-yl)-6,7,8,9-tetrahydro-5H-pyrimido[4,5-d]azepine]: the Ki in test [1] (setting [3]) is less than 1000 nM.
On to `FC(F)(F)CN1CCc2cnc(N3CCN(C4CCC4)CC3)nc2CC1` [Compound 592, 2-(4-cyclobutylpiperazin-1-yl)-7-(2,2,2-trifluoroethyl)-6,7,8,9-tetrahydro-5H-pyrimido[4,5-d]azepine], for which, in test [1] (setting [3]), the Ki is less than 1000 nM.
For `O=C(c1ccccc1)N1CCc2ncnc(N3CCN(C4CCC4)CC3)c2CC1` [Compound 8, [4-(4-Cyclobutyl-piperazin-1-yl)-5,6,8,9-tetrahydro-pyrimido[4,5-d]azepin-7-yl]-phenyl-methanone], in test [1] (setting [5]), the inhibition constant Ki is less than 1000 nM.
Regarding `c1nc(N2CCN(C3CCC3)CC2)nc2c1CCN(C1CCOCC1)CC2` [Compound 591, 2-(4-cyclobutylpiperazin-1-yl)-7-(tetrahydro-2H-pyran-4-yl)-6,7,8,9-tetrahydro-5H-pyrimido[4,5-d]azepine], the Ki in test [1] (setting [3]) is less than 1000 nM.
`c1ccc(CN2CCc3ncnc(N4CCN(C5CCC5)CC4)c3CC2)cc1` [Compound 142, 7-benzyl-4-(4-cyclobutylpiperazin-1-yl)-6,7,8,9-tetrahydro-5H-pyrimido[4,5-d]azepine]: the Ki in test [1] (setting [4]) is less than 1000 nM.
As for `FC(F)(F)CN1CCN(c2ncc3c(n2)CCN(C2CCC2)CC3)CC1` [Compound 602, 7-cyclobutyl-2-[4-(2,2,2-trifluoroethyl)piperazin-1-yl]-6,7,8,9-tetrahydro-5H-pyrimido[4,5-d]azepine], in test [1] (setting [3]), the Ki is less than 1000 nM.
Turning to `CC(=O)N1CCN(c2ncc3c(n2)CCN(C2CCC2)CC3)CC1` [Compound 600, 2-(4-acetylpiperazin-1-yl)-7-cyclobutyl-6,7,8,9-tetrahydro-5H-pyrimido[4,5-d]azepine], the Ki in test [1] (setting [3]) was less than 1000 nM.
As to `FC1(F)CCC(CN2CCc3cnc(N4CCN(C5CCC5)CC4)nc3CC2)CC1` [Compound 594, 2-(4-cyclobutylpiperazin-1-yl)-7-[(4,4-difluorocyclohexyl)methyl]-6,7,8,9-tetrahydro-5H-pyrimido[4,5-d]azepine], the Ki in test [1] (setting [3]) is less than 1000 nM.
With `c1ccc(CN2CCc3nc(N4CCN(C5CCC5)CC4)ncc3C2)cc1` [Compound 605, 6-benzyl-2-(4-cyclobutylpiperazin-1-yl)-5,6,7,8-tetrahydropyrido[4,3-d]pyrimidine], the Ki in test [1] (setting [4]) is less than 1000 nM.
In the case of `CC(=O)c1ccc(N2CCc3nc(N4CCN(C5CCC5)CC4)ncc3C2)cc1` [Compound 5, 1-{4-[2-(4-Cyclobutyl-piperazin-1-yl)-7,8-dihydro-5H-pyrido[4,3-d]pyrimidin-6-yl]-phenyl}-ethanone], the Ki in test [1] (setting [5]) is less than 1000 nM.
With `CC(=O)c1ccc(OCC(=O)N2CCc3ncnc(N4CCN(C5CCC5)CC4)c3CC2)cc1` [Compound 143, 1-(4-{2-[4-(4-cyclobutylpiperazin-1-yl)-5,6,8,9-tetrahydro-7H-pyrimido[4,5-d]azepin-7-yl]-2-oxoethoxy}phenyl)ethanone], in test [1] (setting [4]), the Ki is less than 1000 nM.
On to `CCN1CCN(c2ncc3c(n2)CCN(CC2CCOCC2)CC3)CC1` [Compound 598, 2-(4-ethylpiperazin-1-yl)-7-(tetrahydro-2H-pyran-4-ylmethyl)-6,7,8,9-tetrahydro-5H-pyrimido[4,5-d]azepine], for which, in test [1] (setting [3]), the Ki is less than 1000 nM.
Same read-out and setting: as for `CC1CCC[C@@H]2CN(c3ncc4c(n3)CCN(C3CCC3)CC4)CCN12` (some centres unmarked) [Compound 596, 7-cyclobutyl-2-(6-methyloctahydro-2H-pyrido[1,2-a]pyrazin-2-yl)-6,7,8,9-tetrahydro-5H-pyrimido[4,5-d]azepine], the figure is less than 1000 nM.
As for `c1nc(N2CCN(C3CCC3)CC2)nc2c1CCN(CC1CCCCC1)CC2` [Compound 9, 2-(4-Cyclobutyl-piperazin-1-yl)-7-cyclohexylmethyl-6,7,8,9-tetrahydro-5H-pyrimido[4.5-d]azepine], the Ki in test [1] (setting [5]) was less than 1000 nM.
On to `CC(=O)N1CCc2nc(N3CCN(C4CCC4)CC3)ncc2C1` [Compound 608, 6-acetyl-2-(4-cyclobutylpiperazin-1-yl)-5,6,7,8-tetrahydropyrido[4,3-d]pyrimidine], for which the Ki in test [1] (setting [4]) is less than 1000 nM.
Regarding `CC1CCC[C@@H]2CN(c3ncc4c(n3)CCN(CC3CCOCC3)CC4)CCN12` (some centres unmarked) [Compound 597, 2-(6-methyloctahydro-2H-pyrido[1,2-a]pyrazin-2-yl)-7-(tetrahydro-2H-pyran-4-ylmethyl)-6,7,8,9-tetrahydro-5H-pyrimido[4,5-d]azepine], the Ki in test [1] (setting [3]) was less than 1000 nM.
Consider `CCN1CCc2nc(N3CCN(C4CCC4)CC3)ncc2C1` [Compound 606, 2-(4-cyclobutylpiperazin-1-yl)-6-ethyl-5,6,7,8-tetrahydropyrido[4,3-d]pyrimidine], for which the Ki in test [1] (setting [4]) is less than 1000 nM.
Turning to `COCCN1CCc2cnc(N3CCN(C4CCC4)CC3)nc2CC1` [Compound 593, 2-(4-cyclobutylpiperazin-1-yl)-7-(2-methoxyethyl)-6,7,8,9-tetrahydro-5H-pyrimido[4,5-d]azepine], the inhibition constant Ki in test [1] (setting [3]) was less than 1000 nM.
Consider `CC(C)(C)OC(=O)N1CCN(c2ncc3c(n2)CCN(C2CCC2)CC3)CC1` [Compound 601, tert-butyl 4-(7-cyclobutyl-6,7,8,9-tetrahydro-5H-pyrimido[4,5-d]azepin-2-yl)piperazine-1-carboxylate], for which the Ki in test [1] (setting [3]) was less than 1000 nM.
As for `c1nc(N2CCN(C3CCC3)CC2)nc2c1CN(CC1CCCCC1)CC2` [Compound 607, 2-(4-cyclobutylpiperazin-1-yl)-6-(cyclohexylmethyl)-5,6,7,8-tetrahydropyrido[4,3-d]pyrimidine], the Ki in test [1] (setting [4]) was less than 1000 nM.
As to `CCN1CCN(c2ncc3c(n2)CCN(C2CCC2)CC3)CC1` [Compound 599, 7-cyclobutyl-2-(4-ethylpiperazin-1-yl)-6,7,8,9-tetrahydro-5H-pyrimido[4,5-d]azepine], the Ki in test [1] (setting [3]) was less than 1000 nM.
`c1nc2c(c(N3CCN(C4CCC4)CC3)n1)CCN(CC1CCCCC1)CC2` [Compound 6, 4-(4-Cyclobutyl-piperazin-1-yl)-7-cyclohexylmethyl-6,7,8,9-tetrahydro-5H-pyrimido[3,4-d]azepine]: the Ki in test [1] (setting [5]) was less than 1000 nM.
As a reminder, the inhibition is how much of the control response was suppressed. Regarding `O=C(c1ccco1)N1CCc2cnc(N3CCN(C4CCC4)CC3)nc2CC1` [Compound 196, 2-(4-cyclobutylpiperazin-1-yl)-7-(2-furoyl)-6,7,8,9-tetrahydro-5H-pyrimido[4,5-d]azepine], the inhibition at 4 µM in test [2] is not below 90%.
